Source: ChEMBL document CHEMBL3045101, “Hypoglycemic effect of astaxanthin from shrimp waste in alloxan-induced diabetic mice” (2012)
Calls of active or inactive are those of the source. The calls are words filed in the database; no cut-off is given here.

Assays:
Mus musculus [1] = experiment: Antidiabetic activity in Mus musculus Kunming (mouse) alloxan-induced diabetic model assessed as reduction of 16 hr fasting plasma glucose level at 10 mg/kg, po qd for 7 days (reference value: 6.11 +/- 0.64 mmol/l); assay type: functional
Mus musculus [2] = experiment: Antidiabetic activity in Mus musculus Kunming (mouse) alloxan-induced diabetic model assessed as reduction of 16 hr fasting plasma glucose level at 5 mg/kg, po qd for 7 days (reference value: 6.11 +/- 0.64 mmol/l); assay type: functional
Mus musculus [3] = experiment: Hypoglycemic activity in Mus musculus Kunming (mouse) assessed as reduction of 16 hr fasting plasma glucose level at 5 mg/kg, po qd for 7 days by oral glucose tolerance test (reference value: 6.20 +/- 0.63 mmol/l); assay type: functional
Mus musculus [4] = experiment: Hypoglycemic activity in Mus musculus Kunming (mouse) assessed as reduction of AUC of plasma glucose level at 5 to 10 mg/kg, po qd for 7 days by oral glucose tolerance test; assay type: functional, organism-based
Mus musculus [5] = experiment: Hypoglycemic activity in Mus musculus Kunming (mouse) assessed as reduction of 16 hr fasting plasma glucose level at 10 mg/kg, po qd for 7 days by oral glucose tolerance test (reference value: 6.20 +/- 0.63 mmol/l); assay type: functional
Mus musculus [6] = experiment: Hypoglycemic activity in Mus musculus Kunming (mouse) assessed as reduction of 16 hr fasting plasma glucose level at 2.4 mg/kg, po qd for 7 days by oral glucose tolerance test (reference value: 6.20 +/- 0.63 mmol/l); assay type: functional

SMILES	Activity (Mus musculus [1]) [mmol/L]	Activity (Mus musculus [2]) [mmol/L]	Activity (Mus musculus [3]) [mmol/L]	Activity (Mus musculus [4])	Activity (Mus musculus [5]) [mmol/L]	Activity (Mus musculus [6]) [mmol/L]
CC1=C(/C=C/C(C)=C/C=C/C(C)=C/C=C/C=C(C)/C=C/C=C(C)/C=C/C2=C(C)C(=O)[C@@H](O)CC2(C)C)C(C)(C)C[C@H](O)C1=O [ASTAXANTHIN]	10.11	13.03	6.14	Active	6.02	–
Cc1ccc(S(=O)(=O)NC(=O)NN2CC3CCCC3C2)cc1 (configuration not stated) [GLICLAZIDE]	–	–	–	–	–	4.69
CN(C)C(=N)NC(=N)N [METFORMIN]	9.98	–	–	–	–	–
